PubChem BioAssay (NCI)
Values joined by “and” are separate entries in the source; they are usually repeats but may differ in a detail not shown here. Equal entries are not always repeated.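 Five concentrations, 48 hours, 96-well plates. Abbreviation: GI50, concentration required for 50% inhibition of growth. TGI: total growth inhibition.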

How the values were obtained:
Experiment in all cases: growth of human tumour cells (NCI), 48 h
[1] = tested on: DU-145 prostate
[2] = tested on: K-562 leukemia
[3] = tested on: LOX IMVI melanoma
[4] = tested on: MDA-MB-231 breast
[5] = tested on: NCI/ADR-RES ovarian
[6] = tested on: OVCAR-5 ovarian
[7] = tested on: SF-268 CNS
[8] = tested on: SNB-75 CNS
[9] = tested on: SW-620 colon
[10] = tested on: TK-10 renal

Row | Structure (SMILES) | TGI [1] | TGI [2] | TGI [3] | TGI [4] | TGI [5] | TGI [6] | TGI [7] | TGI [8] | TGI [9] | TGI [10] | GI50 [1] | GI50 [3] | GI50 [4] | GI50 [5] | GI50 [6] | GI50 [7] | GI50 [8] | GI50 [9] | GI50 [10] | GI50 [2]
1 | O=P(NC12CC3CC(CC(C3)C1)C2)(N1CC1)N1CC1 | > 100000 nM | > 100000 nM | > 100000 nM | > 100000 nM | > 100000 nM | > 100000 nM | > 100000 nM | > 100000 nM | > 100000 nM | > 100000 nM |  |  |  |  |  |  |  |  |  | 
2 | COc1ccc2c(c1)C(=O)C(=O)c1cc(O)c(OC)c(OC)c1-2 | 1750 nM and 3120 nM | 3010 nM | 1830 nM and 3160 nM | 1910 nM and 3870 nM | 2410 nM and 5220 nM | 2420 nM and 3130 nM | 1960 nM and 3260 nM | 2850 nM and 3060 nM | 3180 nM and 9140 nM | 1770 nM and 3050 nM | 1740 nM | 1480 nM | 2100 nM | 1840 nM | 1650 nM | 1860 nM | 1690 nM | 2800 nM | 1690 nM | 
3 | CNC(=O)c1ccc2cc(C3(O)CCn4cncc43)ccc2c1 (centres undefined) | > 100000 nM | > 100000 nM | > 100000 nM | > 100000 nM | > 100000 nM | > 100000 nM | > 100000 nM | > 100000 nM | > 100000 nM | > 100000 nM | > 100000 nM | > 100000 nM | > 100000 nM | > 100000 nM | > 100000 nM | > 100000 nM | > 100000 nM | > 100000 nM | > 100000 nM | > 100000 nM
4 | CC(C)(C)c1[nH]cnc1/C=c1\[nH]c(=O)/c(=C/c2ccccc2)[nH]c1=O | 31300 nM | > 100000 nM | 17700 nM | 30900 nM | > 100000 nM | 86100 nM | > 70100 nM | 44000 nM | 50700 nM | > 100000 nM | 15.9 nM | < 12.1 nM | 23 nM | < 10 nM | 33.5 nM | < 12.3 nM | < 10 nM | < 10 nM | 14100 nM | < 10 nM
5 | O=C(CF)N(O)c1ccc(/C=C/c2ccccc2)cc1 | 6960 nM | > 100000 nM | > 100000 nM | > 100000 nM | > 100000 nM | > 100000 nM | > 100000 nM | 31900 nM | > 100000 nM | 27500 nM | 1480 nM | 2530 nM | 21800 nM | 2520 nM | 8260 nM | 2780 nM | 3410 nM | 1300 nM | 3380 nM | 7920 nM
6 | CN1CCN(c2ccc3nc(-c4c(N)c5c(F)cccc5[nH]c4=O)[nH]c3c2)CC1 | 2970 nM and > 6530 nM and 9590 nM | 2620 nM and 2320 nM and 4910 nM | 1860 nM and 1480 nM and 2140 nM | 5000 nM and > 4190 nM and 8570 nM | 7180 nM and > 10000 nM and 13000 nM | 3940 nM and > 6960 nM and 6940 nM | 4160 nM and > 2830 nM and 10100 nM | 2640 nM and 8040 nM and 5680 nM | 1940 nM and 3210 nM and 2650 nM | 4950 nM and > 4670 nM and 16800 nM | 991 nM and 547 nM and 1060 nM | 478 nM and 410 nM and 769 nM | 1320 nM and 1140 nM and 2050 nM | 1770 nM and 2640 nM and 2470 nM | 1420 nM and 1030 nM and 1760 nM | 1390 nM and 717 nM and 1650 nM | 695 nM and 399 nM and 994 nM | 533 nM and 379 nM and 576 nM | 1140 nM and 1010 nM and 3560 nM | 598 nM and 528 nM and 932 nM
